Laboratory results taken from patent publication US11673947B2, “Target tissue-specific antigen-binding molecule” (Chugai Seiyaku Kabushiki Kaisha, priority 2012, dated 2023).

Columns and labels:
[1] = target: T1, IL-6 (Homo sapiens, UniProt P05231); format: binding; set-up: purchased Kamakura Techno-Science, Inc; conditions: estimated
Protocol: Using Biacore T200 (GE Healthcare), A11 was analyzed for its interaction with human IL-6 (Kamakura Techno-Science, Inc.) in antigen-antibody reaction. Sensor chip CM5 (GE Healthcare) was immobilized with an appropriate amount of protein A/G (Invitrogen) by amine coupling. Antibodies of interest were captured by the chip to allow interaction to IL-6 as an antigen. The two types of running buffers used were 10 mmol/1 ACES, 150 mmol/l NaCl, 0.05% (w/v) Tween20, 100 μmol/l kynurenine, pH 7.4, and 10 mmol/1 ACES, 150 mmol/l NaCl, 0.05% (w/v) Tween20, pH 7.4. The interaction with IL-6 as an antigen was assessed at 37° C. The buffer used to dilute IL-6 was the same running buffer as described above.
A diluted solution of human IL-6 and a running buffer as a blank were injected at a flow rate of 5 μl/min for three minutes to allow interaction of human IL-6 with A11 captured on the sensor chip. […] The dissociation constant KD (M) of A11 was calculated for human IL-6 based on the association rate constant ka (1/Ms) and dissociation rate constant kd (1/s), both of which are kinetic parameters calculated from the sensorgram obtained by the measurement. Each parameter was calculated using the Biacore T200 Evaluation Software (GE Healthcare).
Then, the effect of kynurenine concentration on antigen-antibody reaction between A11 and human IL-6 was assessed using Biacore T200 (GE Healthcare). […]

[2] = target: T1, IL-6; assay: Biacore T200, interaction between IL-6 and kynurenine; format: binding; set-up: purchased Kamakura Techno-Science, Inc; conditions: kynurenine at a maximal concentration of 800 nmol/l, about 5000 RU IL-6 immobilized, 25° C.
Protocol: The interaction between IL-6 (Kamakura Techno-Science, Inc.) and kynurenine was analyzed using Biacore T200 (GE Healthcare). Sensor chip CM5 (GE Healthcare) was immobilized with about 5000 RU of IL-6 by amine coupling, and 800, 400, 200, 100, 50, or 25 nmol/l kynurenine was allowed to interact with IL-6. The running buffer used was 10 mmol/l ACES, 150 mmol/l NaCl, 0.05% (w/v) Tween20, pH 7.4. All measurements for the interaction described above were carried out at 25° C. Kynurenine was diluted using the running buffer.
About 5000 RU of IL-6 was immobilized in the above-described experiment. The molecular weights of IL-6 and kynurenine were about 20000 g/mol and about 200 g/mol, respectively. Thus, at maximum about 50 RU of kynurenine was expected to interact.

[3] = test system: BaF/hIL-6R cells; assay: Flow cytometry, binding to membrane-type hIL-6R on BaF/hIL-6R cells; format: cell-based; conditions: with and without 100 μM kynurenine
Protocol: 6RNMSC1-2_F02 antibody which has an antigen-binding activity in the presence of kynurenine as described in Example 14 was assessed for its binding to soluble hIL-6R. As a first step in assessing the ADCC activity of 6RNMSC1-2_F02 to hIL-6R-expressing cells, 6RNMSC1-2_F02 was evaluated as to whether it has the ability to bind to membrane-type hIL-6R expressed in hIL-6R-expressing cells. Specifically, the binding of 6RNMSC1-2_F02 to cells of the BaF/hIL-6R line (WO2012/073992) was assayed and analyzed using a flow cytometer. An appropriate number of BaF/hIL-6R cells were prepared and blocked with PBS containing 2% FBS on ice for one hour or more. Supernatant was removed from the blocked cells by centrifugation, and 100 μl of 6RNMSC1-2_F02 or the control antibody MRA (the heavy chain and light chain sequences are shown in SEQ ID NOs: 92 and 93, respectively) was added under two conditions: in the presence or absence of a final concentration of kynurenine at 100 μM. In this step, the antibodies were contacted with cell-membrane hIL-6R on ice for 30 minutes. […] Then, in the presence or absence of kynurenine, the complex was contacted with a secondary antibody (Beckman Coulter IM1627) that recognizes the antibody constant region. […] The binding of 6RNMSC1-2_F02 to the prepared cells was assayed and analyzed using the BD FACS cant II Flow Cytometer (BD).

[4] = target: T2, hIL-6R (Homo sapiens, UniProt P08887); assay: IgG ELISA, binding to hIL-6R in mouse serum with or without kynurenine; conditions: mouse serum with or without kynurenine
T2 sequence (P08887 20-355 limits assumed): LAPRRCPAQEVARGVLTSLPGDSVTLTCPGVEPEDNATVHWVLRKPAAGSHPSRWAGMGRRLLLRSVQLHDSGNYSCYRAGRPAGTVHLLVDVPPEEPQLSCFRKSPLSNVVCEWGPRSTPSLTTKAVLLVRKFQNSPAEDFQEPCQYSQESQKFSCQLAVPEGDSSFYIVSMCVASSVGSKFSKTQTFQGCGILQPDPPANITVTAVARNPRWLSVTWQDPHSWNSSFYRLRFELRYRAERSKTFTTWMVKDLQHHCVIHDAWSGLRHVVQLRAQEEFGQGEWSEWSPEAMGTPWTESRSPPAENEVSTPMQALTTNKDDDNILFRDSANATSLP
Protocol: As described in Example 14, antibody 6RNMSC1-2_F02 which has antigen-binding activity in the presence of kynurenine, and the known anti-hIL-6R antibody MRA were subjected to ELISA under the two conditions described in Table 20. The antigen used was biotin-labeled hIL-6R.
First, a StreptaWell 96 microtiter plate (Roche) was coated at room temperature for one hour or more with 100 μl of PBS containing the biotin-labeled antigen. After washing with Wash buffer to remove unbound antigen from the plate, each well was blocked for one hour or more with 250 μl of Blocking Buffer. After Blocking Buffer was removed from each well, each of the purified IgGs was prepared to 2.5 μg/ml under condition 2 shown in Table 20, and aliquoted at 100 μl into the plate. The plate was allowed to stand at room temperature for one hour to allow binding of each IgG to the antigen in each well. After washing with Wash Buffer containing 100 μM kynurenine, an HRP-conjugated anti-human IgG antibody (BIOSOURCE) diluted with Sample Buffer containing kynurenine was added to each well. The plate was incubated for one hour. Following wash with Wash Buffer containing kynurenine, the TMB single solution (ZYMED) was added to each well. The chromogenic reaction in the solution of each well was terminated by adding sulfuric acid. Then, the developed color was assessed by measuring absorbance at 450 nm.

T1 sequence (P05231 30-212): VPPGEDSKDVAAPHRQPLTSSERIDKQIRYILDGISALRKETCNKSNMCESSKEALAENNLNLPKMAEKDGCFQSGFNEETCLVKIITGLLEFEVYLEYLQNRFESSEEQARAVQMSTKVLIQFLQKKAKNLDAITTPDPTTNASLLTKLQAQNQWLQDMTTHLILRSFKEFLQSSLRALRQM

| Compound | KD of kynurenine for formation of the complex consisting of A11, IL-6, and kynurenine [1] | interaction with IL-6 [2] | fluorescence (binding to membrane-type hIL-6R) [3] | absorbance, effect of kynurenine [4] |
| --- | --- | --- | --- | --- |
| Nc1ccccc1C(=O)C[C@H](N)C(=O)O [kynurenine] | several tens nM to several nM | not detectable | – | – |
| MRA: known anti-human IL-6R antibody; SEQ ID NOs: 92 and 93 [reference compound] | – | – | detectable regardless of the presence or absence of kynurenine | the same regardless of the presence or absence of kynurenine |
